# Assay results reported in US5675003A, “3-ammoniopropenyl cephalosporin compounds as antibacterial agents” (Korea Institute of Science and Technology, priority 1995, dated 1997).
# Assays:
# Test in all cases: MIC, in vitro agar dilution method
# Format in all cases: cell-based
# [1] = tested on: Escherichia coli TEM; details: E.c.3, Escherichia coli TEM
# Procedure: (§1) The MICs of the new cephalosporins of the present invention against Gram-positive and Gram-negative bacteria were determined by an in vitro agar dilution method. For comparisons, the MIC values of ceftazidime are also listed.
# (§2) In vitro antimicrobial activity of the cephalosporins (l) (MIC:
# E.c.3, Escherichia coli TEM;
# [2] = tested on: Enterobacter cloacae 1321 E; details: En.c.2, Enterobacter cloacae 1321 E; agar dilution; read-out: MIC
# Procedure: as §1, §2
# En.c.2, Enterobacter cloacae 1321 E.
# [3] = tested on: Escherichia coli O55; details: E.c.1, Escherichia coli O55
# Procedure: as §1, §2
# E.c.1, Escherichia coli O55;
# [4] = tested on: Pseudomonas aeruginosa 1592 E; details: P.a.2, Pseudomonas aeruginosa 1592 E; agar dilution; read-out: MIC
# Procedure: as §1, §2
# P.a.2, Pseudomonas aeruginosa 1592 E;
# [5] = tested on: Streptococcus pyogenes A 77; details: A77; S.p.2, Streptococcus pyogenes A 77; agar dilution; read-out: MIC
# Procedure: as §1, §2
# S.p.2, Streptococcus pyogenes A 77;
# [6] = tested on: Pseudomonas eruginosa 1771; details: P.a.3, Pseudomonas eruginosa 1771
# Procedure: as §1, §2
# P.a.3, Pseudomonas eruginosa 1771;
# [7] = tested on: Escherichia coli DC0; details: E.c.2, Escherichia coli DC0
# Procedure: as §1, §2
# E.c.2, Escherichia coli DC0;
# [8] = tested on: Streptococcus faecium MD; details: Enterococcus faecium; S.f., Streptococcus faecium MD; agar dilution; read-out: MIC
# Procedure: as §1, §2
# S.f., Streptococcus faecium MD;
# [9] = tested on: Staphylococcus aureus 503; details: S.a.3, Staphylococcus aureus 503; agar dilution; read-out: MIC
# Procedure: as §1, §2
# S.a.3, Staphylococcus aureus 503;
# [10] = tested on: E.c.5; details: Escherichia coli, E.c.5 (strain not defined)
# Procedure: as §1
# [11] = tested on: Salmonella typhimurium; details: Salmonella enterica; S.t., Salmonella typhimurium; agar dilution; read-out: MIC
# Procedure: as §1, §2
# S.t., Salmonella typhimurium;
# [12] = tested on: Pseudomonas aeruginosa 1771 M; details: P.a.4, Pseudomonas aeruginosa 1771 M; agar dilution; read-out: MIC
# Procedure: as §1, §2
# P.a.4, Pseudomonas aeruginosa 1771 M;
# [13] = tested on: Klebsiella aerogenes 1552 E; details: K.a., Klebsiella aerogenes 1552 E; agar dilution; read-out: MIC
# Procedure: as §1, §2
# K.a., Klebsiella aerogenes 1552 E;
# [14] = tested on: Staphylococcus aureus 285; details: S.a.2, Staphylococcus aureus 285; agar dilution; read-out: MIC
# Procedure: as §1, §2
# E.c. TEM, S.a. 2, Staphylococcus aureus 285;
# [15] = tested on: Streptococcus pyogenes 308 A; details: S.p.1, Streptococcus pyogenes 308 A; agar dilution; read-out: MIC
# Procedure: as §1, §2
# S.p.1, Streptococcus pyogenes 308 A;
# [16] = tested on: Klebsiella oxytoca 1082 E; details: K.o., Klebsiella oxytoca 1082 E; agar dilution; read-out: MIC
# Procedure: as §1, §2
# K.o., Klebsiella oxytoca 1082 E;
# [17] = tested on: Pseudomonas aeruginosa 9027; details: P.a.1, Pseudomonas aeruginosa 9027; agar dilution; read-out: MIC
# Procedure: as §1, §2
# P.a.1, Pseudomonas aeruginosa 9027;
# [18] = tested on: Enterobacter cloacae P 99; details: Enterobacter cloacae, P99
# Procedure: as §1, §2
# En.c.1, Enterobacter cloacae P 99;
# [19] = tested on: Staphlococcus aureus SG 511; details: S.a.1, Staphlococcus aureus SG 511; agar dilution; read-out: MIC
# Procedure: as §1, §2
# S.a.1, Staphlococcus aureus SG 511;
# [20] = tested on: Escherichia coli 1507 E; details: E.c.4, Escherichia coli 1507 E
# Procedure: as §1, §2
# E.c.4, Escherichia coli 1507 E;
structure (smiles),measurement,setting,value
"CO/N=C(\C(=O)N[C@@H]1C(=O)N2C(C(=O)[O-])=C(/C=C/C[N+]3(C)C[C@H](O)C[C@H]3CO)CS[C@H]12)c1csc(N)n1 (stereo partly drawn) [1-c, 7β-[2-(2-Aminothiazol-4-yl)-(Z)-2-methoxyiminoacetamido]-3-[(E)-3-(4R-hydroxy-2S-hydroxymethyl-1-methyl-1-pyrrolidinio)-1-propen-1-yl]-3-cephem-4-carboxylate]",MIC,[1],0.025 µg/mL
same,MIC,[2],0.013 µg/mL
same,MIC,[3],0.013 µg/mL
same,MIC,[4],3.13 µg/mL
same,MIC,[5],0.004 µg/mL
same,MIC,[6],1.56 µg/mL
same,MIC,[7],0.049 µg/mL
same,MIC,[8],50 µg/mL
same,MIC,[9],0.2 µg/mL
same,MIC,[10],0.049 µg/mL
same,MIC,[11],0.025 µg/mL
same,MIC,[12],0.2 µg/mL
same,MIC,[13],0.049 µg/mL
same,MIC,[14],0.78 µg/mL
same,MIC,[15],0.013 µg/mL
same,MIC,[16],3.13 µg/mL
same,MIC,[17],6.25 µg/mL
same,MIC,[18],3.13 µg/mL
same,MIC,[19],0.39 µg/mL
same,MIC,[20],0.049 µg/mL
CO/N=C(\C(=O)N[C@@H]1C(=O)N2C(C(=O)[O-])=C(/C=C/C[N+](C)(CCO)CCO)CS[C@H]12)c1csc(N)n1 [1-d],MIC,[1],0.013 µg/mL
same,MIC,[2],0.013 µg/mL
same,MIC,[3],0.013 µg/mL
same,MIC,[4],1.56 µg/mL
same,MIC,[5],0.004 µg/mL
same,MIC,[6],0.78 µg/mL
same,MIC,[7],0.049 µg/mL
same,MIC,[8],50 µg/mL
same,MIC,[9],0.2 µg/mL
same,MIC,[10],0.049 µg/mL
same,MIC,[11],0.025 µg/mL
same,MIC,[12],0.098 µg/mL
same,MIC,[13],0.025 µg/mL
same,MIC,[14],0.78 µg/mL
same,MIC,[15],0.013 µg/mL
same,MIC,[16],0.78 µg/mL
same,MIC,[17],3.13 µg/mL
same,MIC,[18],6.25 µg/mL
same,MIC,[19],0.39 µg/mL
same,MIC,[20],0.098 µg/mL
"CO/N=C(\C(=O)N[C@@H]1C(=O)N2C(C(=O)[O-])=C(/C=C/C[N+]3(C)CCC(O)CC3)CS[C@H]12)c1csc(N)n1 (stereo partly drawn) [1-g, 7β-[2-(2-Aminothiazol-4-yl)-(Z)-2-methoxyiminoacetamido]-3-[(E)-3-(4-hydroxy-1-methyl-1-piperidinio)-1-propen-1-yl]-3-cephem-4-carboxylate]",MIC,[1],0.049 µg/mL
same,MIC,[2],0.025 µg/mL
same,MIC,[3],0.025 µg/mL
same,MIC,[4],3.13 µg/mL
same,MIC,[5],0.013 µg/mL
same,MIC,[6],1.56 µg/mL
same,MIC,[7],0.049 µg/mL
same,MIC,[8],50 µg/mL
same,MIC,[9],0.2 µg/mL
same,MIC,[10],0.049 µg/mL
same,MIC,[11],0.049 µg/mL
same,MIC,[12],0.2 µg/mL
same,MIC,[13],0.025 µg/mL
same,MIC,[14],0.78 µg/mL
same,MIC,[15],0.013 µg/mL
same,MIC,[16],3.13 µg/mL
same,MIC,[17],6.25 µg/mL
same,MIC,[18],3.13 µg/mL
same,MIC,[19],0.39 µg/mL
same,MIC,[20],0.098 µg/mL
CO/N=C(\C(=O)N[C@@H]1C(=O)N2C(C(=O)[O-])=C(/C=C/C[N+]3(C)CCCCC3CO)CS[C@H]12)c1csc(N)n1 (stereo partly shown) [1-h],MIC,[1],0.025 µg/mL
same,MIC,[2],0.013 µg/mL
same,MIC,[3],0.013 µg/mL
same,MIC,[4],3.13 µg/mL
same,MIC,[5],0.007 µg/mL
same,MIC,[6],1.56 µg/mL
same,MIC,[7],0.049 µg/mL
same,MIC,[8],25 µg/mL
same,MIC,[9],0.2 µg/mL
same,MIC,[10],0.049 µg/mL
same,MIC,[11],0.025 µg/mL
same,MIC,[12],0.098 µg/mL
same,MIC,[13],0.025 µg/mL
same,MIC,[14],0.39 µg/mL
same,MIC,[15],0.013 µg/mL
same,MIC,[16],1.56 µg/mL
same,MIC,[17],6.25 µg/mL
same,MIC,[18],3.13 µg/mL
same,MIC,[19],0.39 µg/mL
same,MIC,[20],0.049 µg/mL
"CON=C(C(=O)NC1C(=O)N2C(C(=O)[O-])=C(C=CC[N+]3(C)C4CCC3CC(O)C4)CSC12)c1csc(N)n1 (stereo not drawn) [1-i, 7β-[2-(2-Aminothiazol-4-yl)-(Z)-2-methoxyiminoacetamido]-3-[(E)-3-tropinio-1-propen-1-yl]-3-cephem-4-carboxylate]",MIC,[1],0.025 µg/mL
same,MIC,[2],0.025 µg/mL
same,MIC,[3],0.025 µg/mL
same,MIC,[4],3.13 µg/mL
same,MIC,[5],0.013 µg/mL
same,MIC,[6],1.56 µg/mL
same,MIC,[7],0.049 µg/mL
same,MIC,[8],50 µg/mL
same,MIC,[9],0.2 µg/mL
same,MIC,[10],0.049 µg/mL
same,MIC,[11],0.049 µg/mL
same,MIC,[12],0.2 µg/mL
same,MIC,[13],0.025 µg/mL
same,MIC,[14],0.78 µg/mL
same,MIC,[15],0.013 µg/mL
same,MIC,[16],1.56 µg/mL
same,MIC,[17],6.25 µg/mL
same,MIC,[18],6.25 µg/mL
same,MIC,[19],0.39 µg/mL
same,MIC,[20],0.098 µg/mL
